In publication PMC9410537, “Discovery of Ircinianin Lactones B and C—Two New Cyclic Sesterterpenes from the Marine Sponge Ircinia wistarii” (Marine Drugs, 2022):
Read-outs that look alike come from different tables or passages of the source.

Assays:
[1] = test system: E. aerogenes ATCC13048; test: Antibacterial assay (MIC); type: cell-based, Enterobacter aerogenes; conditions: Klebsiella aerogenes
Protocol: The minimal inhibitory concentration (MIC) was determined as described previously in cation-adjusted Mueller-Hinton medium according to the standards and guidelines of the Clinical and Laboratory Standards Institute. […] After an overnight incubation at 37 °C, the MIC was read as the lowest compound concentration preventing visible bacterial growth. The strain panel included representative species of nosocomial pathogens, known as “[…]” bacteria. Specifically, the following strains were used: Enterococcus faecium BM 4147-1, Staphylococcus aureus ATCC 29213, Klebsiella pneumoniae ATCC 12657, Acinetobacter baumannii 09987, Pseudomonas aeruginosa ATCC 27853, and Enterobacter aerogenes ATCC 13048. Bacillus subtilis 168, Escherichia coli ATCC 25922, and Mycobacterium smegmatis mc^2 155 ATCC 700084 were used as further reference strains.

[2] = test system: Severe Acute Respiratory Syndrome Corona Virus type 2 (SARS-CoV-2); type: cell-based; conditions: up to the highest concentration tested (10 µM), CaCo2 cells
[3] = test system: Wolbachia endosymbionts; test: Anthelmintic assay, depletion of Wolbachia endosymbionts from cultured adult female worms; type: cell-based, Litomosoides sigmodontis; conditions: 0.1, 1 and 10 µM, two weeks of in vitro culture; not statistically significant
Protocol: To investigate the activity against filarial nematodes, adult female worms of the rodent filarial nematode Litomosoides sigmodontis were cultured in vitro with a 0.1, 1 and 10 µM concentration of 1. Motility of adult filariae as well as reduction of Wolbachia endosymbionts were assessed. […] L. sigmodontis adult female worms were isolated from chronically infected cotton rats (UKB). Three L. sigmodontis female adult worms per condition were cultured in supplemented Minimal Essential Medium (MEM) on a LLCMK2 cell layer, as previously described. […] Candidate 1 was tested at concentrations of 0.1, 1 and 10 µM. Filarial viability was assessed by determining the mean worm motility scores on a scale of 0 (immotile) to 2 (maximum motility) before drug addition and at 1 h, 1 day, 2 day, 4 day, 6 day, 8 day, 10 day, 12 day and 14 day post drug addition. The drug-containing media was renewed every other day. Depletion of Wolbachia endosymbionts from female adult worms was analyzed after two weeks of in vitro culture and determined as previously described using primers for the single copy gene Wolbachia ftsZ.

[4] = test system: panel comprising 60 human cancer cell lines; test: One dose NCI-60 cell-line cytotoxicity screen; type: cell-based; conditions: single high dose
From the text: One dose NCI-60 panel: 1 was selected for the anticancer drug screening service as a part of the Developmental Therapeutics Program at the National Cancer Institute (NCI). In vitro tumor growth inhibitory effects were explored using a standard protocol with a single high dose test against a panel comprising 60 human cancer cell lines. It is noteworthy to mention that we had to remove the results of the NCI-H23 cell line, since NCI informed us that its cell line’s identity was not authenticated during the time frame in which the screening of 1 was conducted.

[5] = test system: L-6 cells (rat skeletal myoblasts); test: In vitro cytotoxicity assay with L-6 cells (resazurin); type: cell-based; conditions: L6, L-6 cells, read-out: IC50 L6
Protocol: In vitro cytotoxicity assay with L-6 cells. Assays were performed in 96-well microtiter plates, each well containing 100 μL of RPMI 1640 medium supplemented with 1% L-glutamine (200 mM) and 10% fetal bovine serum, and 4000 L-6 cells (a primary cell line derived from rat skeletal myoblasts). Serial drug dilutions ranged from 100 to 0.002 μg/mL. After 70 h of incubation, the plates were inspected under an inverted microscope to assure growth of the controls and sterile conditions. 10 μL of resazurin was then added to each well and the plates were incubated for another 2 h. […] Podophyllotoxin (Sigma P4405) was used as control (IC50 0.011 ± 0.005 μM).

[6] = test system: HeLa human cervical carcinoma cell line; test: In vitro cytotoxicity assay with HeLa cells (resazurin); type: cell-based
Protocol: In vitro cytotoxicity assay with HeLa cells: The cytotoxicity test against the HeLa human cervical carcinoma cell line was performed as described previously in RPMI cell culture medium supplemented with 10% fetal bovine serum using the 7-hydroxy-3H-phenoxazin-3-one-10-oxide (resazurin) assay. Briefly, a 2-fold serial dilution of the test compounds was prepared in duplicates in a microtiter plate and seeded with trypsinized HeLa cells to a final cell concentration of 1 × 10^4 cells per well. After 24 h of incubation at 37 °C, with 5% CO2 and 95% relative humidity, resazurin was added at a final concentration of 200 μM, and cells were again incubated overnight. Cell viability was assessed by determining the reduction of resazurin to the fluorescent resorufin. Fluorescence was measured in a TECAN Infinite M200 reader at an excitation wavelength of 560 nm and an emission wavelength of 600 nm in relation to an untreated control.

[7] = test system: Ciona savignyi larvae; test: Marine antifouling assay, larval settlement and metamorphosis; conditions: up to the highest concentration tested (100 µg/mL), 5 days
Protocol: (§1) Antifouling activity was assessed via inhibition of settlement and metamorphosis of larvae of the Pacific transparent sea squirt (Ciona savignyi) and the blue mussel (Mytilus galloprovincialis). Methods followed those published by Grant et al.. Adults of both species were collected from coastal populations in the Nelson region of New Zealand, held in a recirculating seawater system (18 ± 1 °C, 33 ± 1 PSU) and fed bulk-cultured Isochorysis galbana until ready to spawn. Larval spawning and rearing procedures followed previously described methods for C. savignyi and M. gallorprovincialis. Competent larvae were diluted in artificial seawater to yield 3 ± 1 larvae/mL. Aliquots of these larval suspensions were added to 12-well tissue culture plates (Corning Co-Star) containing serial dilutions of 1 ranging from 0.1–100 µg/mL. Controls were included, and three replicates were performed in all cases. After 5 days of incubation at 18 ± 1 °C, the number of successfully settled and metamorphosed individuals were counted in each well. Sigmoidal dose-response relationships were explored using R Statistical Software to determine whether inhibition had occurred relative to the controls.

[8] = test system: Mytilus galloprovincialis larvae; test: as above; conditions: up to the highest concentration tested (100 µg/mL), 5 days
Protocol: as §1

[9] = Observed stability of the isolated compounds; type: physicochemical; conditions: rapid decomposition after the NMR measurements
From the text: The shift values of the terminal heterocycle were in very good agreement with literature data from similar natural products, bearing a γ-hydroxy-γ-butenolide moiety. Analogous to compound 7, the Δ^8,10 double bond of 8 was defined as E (C-9: δC 16.2 and NOESY cross correlations depicted in Figure 4). Likewise, based on the same observed diagnostic NOE crosspeaks for the indene system (Figure S43B) and for biogenetic reasons, we propose that 8 is 11R*, 15R*, 18S*, 20R*, 21S* configured. […] Therefore, we integrated computational methods and aimed for quantum-mechanical predictions of ^1H and ^13C NMR chemical shifts of a 1S- and a 1R-configured version of 8.
All tests were performed with 1 as a pre-screening for the scaffold’s activity within their respective assays. Based on the results from the pre-screening, the biological evaluation of the structural congeners was planned. Unfortunately, an instability phenomenon affected the purity of the isolated compounds. Due to the limited amounts of the isolated compounds, repurification would not have yielded the required sample quantity for the assays. This reality precluded biological evaluation of the structural congeners 3–8.

## CC1=C[C@@H](/C=C(\C)CCCc2ccoc2)[C@]2(OC(=O)C(C)=C2O)[C@@H]2[C@@H](C)CC[C@@H]12 [compound 1, Ircinianin]
[1]
  MIC: > 32 µg/mL
[2]
  Inhibition of SARS-CoV-2 infection: no inhibition
[3]
  Wolbachia reduction in comparison to media controls: < 32%
[4]
  Activity in NCI 60 cell-line cytotoxicity screen: no activity
[5]; 70 h incubation
  IC50: 150 µM
[5]; single cell line assays (Table S7)
  IC50: 59.5 µg/mL
[6]
  IC50: > 64 µg/mL
[7]
  Inhibitory effect on larval settlement and metamorphosis: inactive
[8]
  Inhibitory effect on larval settlement and metamorphosis: inactive
[9]
  Stability of isolated compound: unstable
